In the experiment the test system is orthopoxvirus-infected cells, imaging factory/early/late reporters. The experiment can be described thus: orthopoxvirus gene expression and factory formation inhibitors, imaging, low MOI, factory DAPI readout, single point, dry powder (AID 1117276). The following applies: at 10 µM; active compounds read high.

The structures appear in SMILES notation. Records with an inconclusive call do not appear. Active and inactive are the calls of the source. No rule for the calls is given here.

As for `C[C@@H](O)C#Cc1ccc2c(c1)O[C@@H](CN(C)Cc1ccc(-c3ccccc3)cc1)[C@@H](C)CN([C@@H](C)CO)S2(=O)=O`, the activity score, factory formation (DAPI) was 36 (inactive).

Values taken from PubChem BioAssay AID1117276 (Broad Institute, 2014).
